# Assay results as given in patent publication US10065924B2, “Preparation and biological evaluation of viridicatumtoxin analogs” (priority 2014, dated 2018).
# How the values were obtained:
# [1] = tested on: Methicillin-Resistant Staphylococcus aureus 371 (MRSA 371); assay: Micro-broth MIC assay, MRSA 371; assay type: cell-based; settings: for MIC: Staphylococcus aureus, MRSA, read-out: Minimum Inhibitory Concentration (MIC) MRSA 371; for Minimum Inhibitory Concentration (MIC) MRSA 371: Gram-(+), clinical strain, triplicate, no growth after 16-24 hours at 37° C.
# Method: (§1) Four clinical strains were used for these studies, Enterococcus faecalis S613, Enterococcus faecium isolate 105, Methicillin-Resistant Staphylococcus aureus 371 (MRSA 371) and Acinetobacter baumannii AB210. Enterococcus strains were cultured in 80% Lysogeny Broth (LB) & 20% Brain Heart Infusion (BHI). MRSA 371 and AB210 were cultured in 100% LB.
# (§2) Micro-broth MIC assays were performed in triplicate using 96-well plates. Wells were filled with 150 μL of broth media and inoculated with 2 μL of stationary phase culture. The concentration of the test antibiotics increased in 2-fold increments and ranged from 0.25-128 μg/mL. Plates were incubated overnight at 37° C. and the MICs were defined as the lowest drug concentration that had no growth after 16-24 hours.
# [2] = tested on: Acinetobacter baumannii AB210; assay: Micro-broth MIC assay, A. baumannii AB210; assay type: cell-based; settings: for MIC: Acinetobacter baumannii, AB210, read-out: Minimum Inhibitory Concentration (MIC) A. baumannii AB210; for Minimum Inhibitory Concentration (MIC) A. baumannii AB210: Gram-(−), clinical strain, triplicate, no growth after 16-24 hours at 37° C.
# Method: as §1, §2
# [3] = tested on: Enterococcus faecalis S613; assay: Micro-broth MIC assay, E. faecalis S613; assay type: cell-based; settings: for MIC: Enterococcus faecalis, S613, read-out: Minimum Inhibitory Concentration (MIC) E. faecalis S613; for Minimum Inhibitory Concentration (MIC) E. faecalis S613: Gram-(+), clinical strain, triplicate, no growth after 16-24 hours at 37° C.
# Method: as §1, §2
# E. faecium 501 = assay: Micro-broth MIC assay, E. faecium 501; assay type: cell-based, Enterococcus faecium; settings: Gram-(+), clinical strain, triplicate, no growth after 16-24 hours at 37° C.; for MIC: Enterococcus faecium, 501, read-out: Minimum Inhibitory Concentration (MIC) E. faecium 501
Compound,MIC [1] [µg/mL],MIC [2] [µg/mL],MIC [3] [µg/mL],MIC (E. faecium 501) [µg/mL],Minimum Inhibitory Concentration (MIC) MRSA 371 [1] [µg/mL],Minimum Inhibitory Concentration (MIC) A. baumannii AB210 [2] [µg/mL],Minimum Inhibitory Concentration (MIC) E. faecalis S613 [3] [µg/mL],Minimum Inhibitory Concentration (MIC) E. faecium 501 (E. faecium 501) [µg/mL]
COc1cc(O)c2c(O)c3c(c4c2c1[C@]1(C4)C(C)=CCCC1(C)C)C(=O)[C@H]1CC(O)=C(C(N)=O)C(=O)[C@@]1(O)C3=O (racemic) [(±)-V2],2,64,0.5,0.5,,,,
COc1cc(O)c2c(O)c3c(c4c2c1[C@@]1(C4)C(C)=CCCC1(C)C)C(=O)[C@H]1CC(O)=C(C(N)=O)C[C@@]1(O)C3=O (racemic) [(±)-V3],8,64,4,2,,,,
COc1cc(OC)c2c(O)c3c(c4c2c1[C@@]1(C4)C(C)=CCCC1(C)C)C(=O)[C@H]1CC(O)=C(C(N)=O)C[C@@]1(O)C3=O (racemic) [(±)-V4],4,64,4,4,,,,
COc1cc(O)c2c(O)c3c(c4c2c1[C@]1(C4)C(C)=CCCC1(C)C)[C@H](O)[C@H]1CC(O)=C(C(N)=O)C(=O)[C@@]1(O)C3=O (racemic) [(±)-V5],8,64,1,1,,,,
COc1cc(O)c2c(O)c3c(c4c2c1[C@]1(C4)C(C)=CCCC1(C)C)[C@@H](O)[C@H]1CC(O)=C(C(N)=O)C(=O)[C@@]1(O)C3=O (racemic) [(±)-V6],2,64,0.5,0.5,,,,
"COc1cc(O)c2c(O)c3c(c4c2c1[C@]1(C4)C(C)=CCCC1(C)C)[C@H](O)[C@@]1(O)CC(=O)C(C(N)=O)=C(O)[C@@]1(O)C3=O [(+)-2, viridicatumtoxin A]",,,,,4,64,1,1
"viridicatumtoxin B [(±)-1, reference compound]",,,,,4,64,1,0.5
